Tested on: HCC1954 breast ductal carcinoma cells
Experiment: HCC1954 5-day cell viability assay (Cell Titer Glo 2.0)
Format: cell-based
Conditions: Homo sapiens, HCC1954, 120 h, read-out: IC50 (HCC1954 5-Day Assay)
Experimental: (§1) *Biological assay protocol: HCC1954 breast ductal carcinoma or SK-BR-3 cells (ATCC, Manassas, VA, USA) were seeded into 384-well white-walled culture plates and allowed to adhere for 2-4 hours. Cells were then treated with test articles at least in duplicate by addition of 5-fold serially diluted test articles prepared at 2× final concentration and incubated at 37° C. for 120 hours. Cell viability following treatment was determined by Cell Titer Glo 2.0 Assay (Promega, Madison, WI, USA) and normalized to non-treated controls. Dose-response relationships were analyzed using GraphPad Prism (La Jolla, CA, USA), and IC50 values were derived from non-linear regression analyses using a 4-parameter logistic equation
as §1, with “HCC1954” for “*Biological assay protocol: HCC1954”, “carcinoma” for “carcinoma or SK-BR-3”, “treated” for “treated with test articles”, “equation.” for “equation”

Row | Compound | IC50 [pM]
1 | CC[C@H](C)[C@@H]([C@@H](CC(=O)N1CCC[C@H]1[C@H](OC)[C@@H](C)C(=O)N[C@H](CC#N)Cc1ccc(N)cc1)OC)N(C)C(=O)[C@@H](NC(=O)[C@H](C(C)C)N(C)C)C(C)C [Compound 1, (S)—N-((3R,4S,5S)-1-((S)-2-((1R,2R)-3-(((S)-1-(4-aminophenyl)-3-cyanopropan-2-yl)amino)-1-methoxy-2-methyl-3-oxopropyl)pyrrolidin-1-yl)-3-methoxy-5-methyl-1-oxoheptan-4-yl)-2-((S)-2-(dimethylamino)-3-methylbutanamido)-N,3-dimethylbutanamide] | 310
2 | CC[C@H](C)[C@@H]([C@@H](CC(=O)N1CCC[C@H]1[C@H](OC)[C@@H](C)C(=O)N[C@H](CC#N)Cc1cccc(N)c1)OC)N(C)C(=O)[C@@H](NC(=O)[C@H](C(C)C)N(C)C)C(C)C [Compound 2, (S)—N-((3R,4S,5S)-1-((S)-2-((1R,2R)-3-(((S)-1-(3-aminophenyl)-3-cyanopropan-2-yl)amino)-1-methoxy-2-methyl-3-oxopropyl)pyrrolidin-1-yl)-3-methoxy-5-methyl-1-oxoheptan-4-yl)-2-((S)-2-(dimethylamino)-3-methylbutanamido)-N,3-dimethylbutanamide] | 370
3 | CC[C@H](C)[C@@H]([C@@H](CC(=O)N1CCC[C@H]1[C@H](OC)[C@@H](C)C(=O)N[C@H](CC#N)Cc1cccc(N)c1)OC)N(C)C(=O)[C@@H](NC(=O)[C@@H](C(C)C)N(C)C)C(C)C [Compound 3, (S)—N-((3R,4S,5S)-1-((S)-2-((1R,2R)-3-(((S)-1-(3-aminophenyl)-3-cyanopropan-2-yl)amino)-1-methoxy-2-methyl-3-oxopropyl)pyrrolidin-1-yl)-3-methoxy-5-methyl-1-oxoheptan-4-yl)-2-((R)-2-(dimethylamino)-3-methylbutanamido)-N,3-dimethylbutanamide] | 120
4 | CC[C@H](C)[C@@H]([C@@H](CC(=O)N1CCC[C@H]1[C@H](OC)[C@@H](C)C(=O)N[C@H](CC#N)Cc1cccc(N)c1)OC)N(C)C(=O)[C@@H](NC(=O)[C@H](C)N(C)C)C(C)C [Compound 4, (S)—N-((3R,4S,5S)-1-((S)-2-((1R,2R)-3-(((S)-1-(3-aminophenyl)-3-cyanopropan-2-yl)amino)-1-methoxy-2-methyl-3-oxopropyl)pyrrolidin-1-yl)-3-methoxy-5-methyl-1-oxoheptan-4-yl)-2-((S)-2-(dimethylamino)propanamido)-N,3-dimethylbutanamide] | 490
5 | CC[C@H](C)[C@@H]([C@@H](CC(=O)N1CCC[C@H]1[C@H](OC)[C@@H](C)C(=O)N[C@H](CC#N)Cc1cccc(N)c1)OC)N(C)C(=O)[C@@H](NC(=O)[C@@H](C)N(C)C)C(C)C [Compound 5, (S)—N-((3R,4S,5S)-1-((S)-2-((1R,2R)-3-(((S)-1-(3-aminophenyl)-3-cyanopropan-2-yl)amino)-1-methoxy-2-methyl-3-oxopropyl)pyrrolidin-1-yl)-3-methoxy-5-methyl-1-oxoheptan-4-yl)-2-((R)-2-(dimethylamino)propanamido)-N,3-dimethylbutanamide] | 370
6 | CC[C@H](C)[C@@H]([C@@H](CC(=O)N1CCC[C@H]1[C@H](OC)[C@@H](C)C(=O)N[C@H](CC#N)Cc1cccc(N)c1)OC)N(C)C(=O)[C@@H](NC(=O)CN(C)C)C(C)C [Compound 6, (S)—N-((3R,4S,5S)-1-((S)-2-((1R,2R)-3-(((S)-1-(3-aminophenyl)-3-cyanopropan-2-yl)amino)-1-methoxy-2-methyl-3-oxopropyl)pyrrolidin-1-yl)-3-methoxy-5-methyl-1-oxoheptan-4-yl)-2-(2-(dimethylamino)acetamido)-N,3-dimethylbutanamide] | 780
7 | CC[C@H](C)[C@@H]([C@@H](CC(=O)N1CCC[C@H]1[C@H](OC)[C@@H](C)C(=O)N(C)[C@H](CC#N)Cc1cccc(N)c1)OC)N(C)C(=O)[C@@H](NC(=O)[C@H](C(C)C)N(C)C)C(C)C [Compound 7, (S)—N-((3R,4S,5S)-1-((S)-2-((1R,2R)-3-(((S)-1-(3-aminophenyl)-3-cyanopropan-2-yl)(methyl)amino)-1-methoxy-2-methyl-3-oxopropyl)pyrrolidin-1-yl)-3-methoxy-5-methyl-1-oxoheptan-4-yl)-2-((S)-2-(dimethylamino)-3-methylbutanamido)-N,3-dimethylbutanamide] | 70
8 | CC[C@H](C)[C@@H]([C@@H](CC(=O)N1CCC[C@H]1[C@H](OC)[C@@H](C)C(=O)N(C)[C@H](CC#N)Cc1cccc(N)c1)OC)N(C)C(=O)[C@@H](NC(=O)[C@H](C)N(C)C)C(C)C [Compound 8, (S)—N-((3R,4S,5S)-1-((S)-2-((1R,2R)-3-(((S)-1-(3-aminophenyl)-3-cyanopropan-2-yl)(methyl)amino)-1-methoxy-2-methyl-3-oxopropyl)pyrrolidin-1-yl)-3-methoxy-5-methyl-1-oxoheptan-4-yl)-2-((S)-2-(dimethylamino)propanamido)-N,3-dimethylbutanamide] | 220
9 | CC[C@H](C)[C@@H]([C@@H](CC(=O)N1CCC[C@H]1[C@H](OC)[C@@H](C)C(=O)N(C)[C@H](CC#N)Cc1cccc(N)c1)OC)N(C)C(=O)[C@@H](NC(=O)[C@@H](C)N(C)C)C(C)C [Compound 9, (S)—N-((3R,4S,5S)-1-((S)-2-((1R,2R)-3-(((S)-1-(3-aminophenyl)-3-cyanopropan-2-yl)(methyl)amino)-1-methoxy-2-methyl-3-oxopropyl)pyrrolidin-1-yl)-3-methoxy-5-methyl-1-oxoheptan-4-yl)-2-((R)-2-(dimethylamino)propanamido)-N,3-dimethylbutanamide] | 580

— US20250049937A1, “NOVEL AURISTATIN ANALOGS AND IMMUNOCONJUGATES THEREOF” (priority 2021, published 2025)
